Assay results as given in ChEMBL document CHEMBL1629419, “1,3-Diphenyl-1H-pyrazole derivatives as a new series of potent PPARγ partial agonists” (Bioorg Med Chem, 2010).
pEC50, pIC50: −log10 of the molar value.

Each compound was assayed against T1, Peroxisome proliferator-activated receptor gamma (Homo sapiens, UniProt P37231) (assay: Displacement of fluormone PPAR-green from N-terminal His-tagged human PPARgamma-LBD after 2 hrs by fluorescence polarization assay).
T1 sequence (P37231 whole entry): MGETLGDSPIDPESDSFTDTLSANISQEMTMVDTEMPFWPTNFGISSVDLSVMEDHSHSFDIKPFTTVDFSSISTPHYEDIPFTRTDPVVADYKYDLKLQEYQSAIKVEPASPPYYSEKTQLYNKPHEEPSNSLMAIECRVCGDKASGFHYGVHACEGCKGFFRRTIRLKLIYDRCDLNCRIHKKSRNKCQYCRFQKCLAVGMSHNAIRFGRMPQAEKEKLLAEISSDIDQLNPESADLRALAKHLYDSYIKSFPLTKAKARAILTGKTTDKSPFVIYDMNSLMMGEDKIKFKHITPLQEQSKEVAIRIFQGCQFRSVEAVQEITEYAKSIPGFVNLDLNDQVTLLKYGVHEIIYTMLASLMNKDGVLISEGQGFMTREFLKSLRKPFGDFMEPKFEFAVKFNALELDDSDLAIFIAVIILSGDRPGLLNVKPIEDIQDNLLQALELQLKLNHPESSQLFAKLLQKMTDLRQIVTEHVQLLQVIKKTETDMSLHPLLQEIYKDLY

| Compound | pIC50 |
| --- | --- |
| O=C(Oc1ccc([N+](=O)[O-])cc1)c1cn(-c2ccccc2)nc1-c1ccccc1 | 6.01 |

These compounds were tested against T2, Peroxisome proliferator-activated receptor gamma (Homo sapiens) (UniProt P37231) (assay: Displacement of fluormone PPAR-green from N-terminal His-tagged human PPARgamma-LBD assessed as logarithm unit binding affinity value at 10 uM after 2 hrs by fluorescence polarization assay).
T2 sequence (whole entry): T1 sequence (P37231 whole entry)

| Compound | binding affinity |
| --- | --- |
| COc1cc(C=O)ccc1OC(=O)c1cn(-c2ccccc2)nc1-c1ccc(Cl)cc1 | 1.81 |
| COc1ccc(-c2nn(-c3ccccc3)cc2C(=O)OCC(=O)c2ccc(Cl)cc2)cc1 | 1.42 |
| COc1cc(C=O)ccc1OC(=O)c1cn(-c2ccccc2)nc1-c1ccc(OC)c([N+](=O)[O-])c1 | 1.36 |
| COc1ccc(-c2nn(-c3ccccc3)cc2C(=O)Oc2ccccc2)cc1 | 1.45 |
| O=C(COC(=O)c1cn(-c2ccccc2)nc1-c1ccccc1)c1ccc(Cl)c([N+](=O)[O-])c1 | 1.98 |
| COc1cc(C=O)ccc1OC(=O)c1cn(-c2ccccc2)nc1-c1ccc(Br)cc1 | 1.73 |
| CC(=O)Nc1ccc(OC(=O)c2cn(-c3ccccc3)nc2-c2ccccc2)cc1 | 1.58 |
| O=C(Oc1ccccc1)c1cn(-c2ccccc2)nc1-c1ccc(F)cc1 | 1.55 |
| O=C(OCc1ccc([N+](=O)[O-])cc1)c1cn(-c2ccccc2)nc1-c1ccccc1 | 1.38 |
| O=C(Oc1ccc([N+](=O)[O-])cc1)c1cn(-c2ccccc2)nc1-c1ccccc1 | 1.9 |
| S=C(NCc1ccco1)NCc1cn(-c2ccccc2)nc1-c1ccccc1 | 1.73 |
| COc1ccc(-c2nn(-c3ccccc3)cc2C(=O)Oc2ccc(C)cc2)cc1OC | 1.85 |
| CC(=O)c1ccc(OC(=O)c2cn(-c3ccccc3)nc2-c2ccccc2)cc1 | 1.38 |
| O=C(Oc1ccccc1)c1cn(-c2ccccc2)nc1-c1ccc(Br)cc1 | 1.22 |
| O=C(N/N=C/c1cn(-c2ccccc2)nc1-c1ccc(F)cc1)C(O)c1ccccc1 (stereo not drawn) | 1.68 |
| O=C(Oc1ccccc1)c1cn(-c2ccccc2)nc1-c1ccc(Cl)cc1 | 1.15 |
| COc1cc(C=O)ccc1OC(=O)c1cn(-c2ccccc2)nc1-c1ccc(C2COCCO2)cc1 (stereo not drawn) | 1.5 |
| COc1ccc(-c2nn(-c3ccccc3)cc2C(=O)Oc2ccc(C=O)cc2OC)cc1OC | 1.82 |

| Compound | binding affinity |
| --- | --- |
| COc1ccc(-c2nn(-c3ccccc3)cc2C(=O)OCC(=O)c2ccccc2Cl)cc1 | 1.37 |
| O=C(Oc1ccccc1)c1cn(-c2ccccc2)nc1-c1ccccc1 | 1.63 |
| Fc1ccc(-c2nn(-c3ccccc3)cc2CNCc2ccccc2)cc1 | 1.63 |
| COc1ccc(-c2nn(-c3ccccc3)cc2C(=O)Oc2ccccc2)cc1OC | 1.64 |
| O=C(Oc1ccccc1)c1cn(-c2ccccc2)nc1-c1cccc([N+](=O)[O-])c1 | 1.38 |
| COc1ccc(-c2nn(-c3ccccc3)cc2C(=O)OCC(=O)c2ccc([N+](=O)[O-])cc2)cc1 | 1.57 |
| COc1cc(C=O)ccc1OC(=O)c1cn(-c2ccccc2)nc1-c1ccccc1 | 1.99 |
| COc1ccc(-c2nn(-c3ccccc3)cc2C(=O)OCC(=O)c2ccc(Br)cc2)cc1 | 1.2 |
| O=C(COC(=O)c1cn(-c2ccccc2)nc1-c1ccc(Cl)cc1)c1ccccc1 | 1.15 |
| O=C(N/N=C/c1cn(-c2ccccc2)nc1-c1ccccc1)c1ccc([N+](=O)[O-])cc1 | 1.37 |
| COc1cc(C=O)ccc1OC(=O)c1cn(-c2ccccc2)nc1-c1ccc(F)cc1 | 1.82 |
| Cc1ccc(-c2nn(-c3ccccc3)cc2C(=O)Oc2ccccc2)cc1 | 1.31 |
| COc1cc(C=O)ccc1OC(=O)c1cn(-c2ccccc2)nc1-c1ccc(C)cc1 | 1.81 |
| O=C(Oc1cccc2cccnc12)c1cn(-c2ccccc2)nc1-c1ccccc1 | 1.52 |
| COc1cc(C=O)ccc1OC(=O)c1cn(-c2ccccc2)nc1-c1ccc([N+](=O)[O-])cc1 | 1.35 |
| Cc1ccc(-c2nn(-c3ccccc3)cc2C(=O)NCC(=O)c2ccccc2)cc1 | 1.26 |
| CC(C)S(=O)(=O)c1ccc(COC(=O)c2cn(-c3ccccc3)nc2-c2ccccc2)cc1 | 1.72 |
| COc1ccc(-c2nn(-c3ccccc3)cc2C(=O)OCC(=O)c2ccc(C)c([N+](=O)[O-])c2)cc1 | 1.05 |

The compounds below were run against T1, Peroxisome proliferator-activated receptor gamma (assay: Partial agonist activity at human PPARgamma-LBD expressed in HEK293T cells assessed as induction of receptor transactivation after 24 hrs by luciferase reporter gene assay).
Assay type: functional, cell-based, HEK-293T

| Compound | pEC50 |
| --- | --- |
| O=C(Oc1ccc([N+](=O)[O-])cc1)c1cn(-c2ccccc2)nc1-c1ccccc1 | 5.64 |
